From patent US10639306B2, “Aldose reductase inhibitors and uses thereof” (The Trustees of Columbia University in the City of New York, priority 2010, dated 2020)
Where two headings read alike, the source gives them in different places.

What was measured:
[1] = format: physicochemical; settings: for Area (integration of absorbance peak): 3 min, pH 7.1
Method: Each sample of Compound A & zopolrestat were placed, separately, in water (MQW ultra nanopure) at ambient temperature and vortexed for 3 minutes. The aliquots were then filtered through a tightly-packed cotton plug (placed in a pipette) to remove any residual solids. The attempted concentrations of the respective solutions of Compound A and zopolrestat made were 0.05 mg/mL, 0.1 mg/mL, 0.5 mg/mL, 1.0 mg/mL, 5.0 mg/mL, and 10.0 mg/mL. The pH of the water used was 7.1 (measured electronically by an Orion perpHect LogR Meter Model #370).
The filtered samples were run through a binary gradient (program: 5%-100% MeCN over 30 mins) on a LC-MS (Shimadzu LCMS-2010A Liquid Chromatography Mass Spectrometer, reverse-phase column). A 5 μL volume of each sample solution was injected for each run. Each trace contained a peak (for Compound A, TR approx. 14.070 mins; for zopolrestat, TR approx. 16.666 mins) measured at a wavelength of 254 nm for which the respective parent ion masses were observed.
By comparing the absorbance areas under the peaks corresponding to Compound A & zopolrestat in each water solution made (Table 1), a solubility curve for each compound was generated (FIG. 1).

[2] = Solubility in Krebs-Henseleit buffer; format: physicochemical; settings: Krebs-Henseleit buffer with glucose, palmitate, bovine serum albumin, insulin
[3] = biological target: human recombinant aldose reductase (Homo sapiens, UniProt P15121); assay: biochemical
Method: The reductase activity of Compound A and zopolrestat were spectrophotometrically assayed by following the decrease of NADPH at 25° C. for 4 min as described in Sato, S. (1992), “Rat kidney aldose reductase and aldehyde reductase and polyolproduction in rat kidney” Am. J. Physiol. 263, F799.F805, incorporated by reference herein in its entirety.
Briefly, the reaction mixture (total volume 1 ml) contained 0.1 mM NADPH, 100 mM substrate (DL-glyceraldehyde or L-xylose) and human recombinant aldose reductase (100 mU) in 0.1 M phosphate buffer, pH 6.2. The head to head experiment was carried out in a microplate assay for AR inhibition using D-Glyceraldehyde and NADPH and the absorbance changes were monitored at 340 nm and % inhibition was calculated for ARIs at concentrations ranging from 0.1 nM to 100 μM (Table 2 and FIG. 2). Data is presented as mean±standard deviation and is an average of 5 separate runs. The reaction was started by adding the substrate (glyceraldehyde or xylose) as well as the same reaction mixture in which the substrate replaced by deionized water was used as a control. One enzyme unit (U) was defined as the activity consuming 1 μmole of NADPH per min at 25° C.

Structure (SMILES) | Solubility in pH 7.1 water relative to Zopolrestat [1] | Area (integration of absorbance peak) ([1]; 0.05 mg/mL) | Area (integration of absorbance peak) ([1]; 0.1 mg/mL) | Area (integration of absorbance peak) ([1]; 0.5 mg/mL) | Area (integration of absorbance peak) ([1]; 1 mg/mL) | Area (integration of absorbance peak) ([1]; 5 mg/mL) | Area (integration of absorbance peak) ([1]; 10 mg/mL) | Solubility in Krebs-Henseleit buffer [2] | IC50 [3] [nM] | Activity relative to zopolrestat in vitro against aldose reductase ([3]; fold more active than zopolrestat) | inhibition at 1 pM [3] [%] | inhibition at 10 pM [3] [%] | melting point [°C]
O=C(O)Cc1nn(Cc2nc3cc(C(F)(F)F)ccc3s2)c(=O)c2nccnc12 [Compound A, 2-(8-oxo-7-((5-(trifluoromethyl)benzo[d]thiazol-2-yl)methyl)-7,8-dihydropyrazino[2,3-d]pyridazin-5-yl)acetic acid] | significantly greater solubility | 1811131 | 3221003 | 5814304 | 10515430 | 17216187 | 20397336 | soluble without any precipitation or turbidity | 0.0289 | approximately 100 × |  |  | 
O=C(O)Cc1nn(Cc2nc3cc(C(F)(F)F)ccc3s2)c(=O)c2ccccc12 [zopolrestat, reference compound] |  | 1039247 | 1899466 | 4304556 | 6129559 | 13314544 | 13362465 | heat was applied to render zopolrestat soluble |  |  | 11 | 29 | 
O=C(O)Cc1nn(Cc2nc3cc(Cl)ccc3s2)c(=O)c2nccnc12 |  |  |  |  |  |  |  |  |  |  |  |  | 196 to 197
